Measured values reported in patent US9957230B2, “Synergistic compositions” (Cadila Healthcare Limited, priority 2013, dated 2018).

System: Swiss albino mice
Assay: Triglyceride lowering effects of various salts in Swiss albino mice
Type: in vivo
Details: dose equivalent to 1 mg/kg free acid; for Serum triglycerides (mg/dl) Day 0: Day 0 (pretreatment); for Serum triglycerides (mg/dl) Day 0 / Serum triglycerides (mg/dl) Day 6: male Swiss albino mice; for Serum triglycerides (mg/dl) Day 6: Day 6, one hr after dose; for % Change Vs control: serum triglycerides vs vehicle control after 6 days; for % Change Day 6 vs Day 0: serum triglycerides
Method: Comparative Efficacy Study of (Triglyceride Lowering Effects) of Various Salts of Compound (Ia) in Swiss Albino Mice.
The in-vivo efficacy of compound (I) was evaluated in Swiss albino mice. Anti-dyslipidemic drugs have been reported to lower circulating levels of triglyceride in Swiss albino mice through their effect on genes involved in the peroxisomal fatty acid beta oxidation via PPAR alpha agonism. Therefore, this species is preferred for evaluation of their efficacy in lowering circulating triglyceride (TG) levels.
In this experiment, six to eight week old male Swiss albino mice were issued and kept for acclimatization. Near the end of the acclimatization period, animals judged to be suitable for testing were bled under light ether anesthesia and serum samples were analyzed for Serum triglyceride levels.
Test compound was formulated at specified doses in vehicle (10% Polyethylene glycol (PEG) 400+90% of 0.5% Sodium Carboxy methyl cellulose). The animals were dosed orally, once daily in the morning during six days, starting from next day of grouping with vehicle or test compound. The animals were weighed prior to dosing, and based on these weights; the volume of administration was calculated. The volume of formulation administered to each mouse was 10 ml/kg body weight.
On day 6 one hr after the dose administration, blood (0.25 ml) was collected from retro-orbital sinus of the anaesthetized animals. Serum was separated by centrifugation. Serum was analyzed for triglyceride levels. Analysis for serum triglyceride levels was performed using a Spectrophotometer and commercially available kit. Calculations for determination of % change and % reduction in serum TG levels were performed using MS Excels sheet.

[1] = Table 5, oral once daily 6 days
[2] = Table 3, oral once daily 6 days

Row | Compound | Serum triglycerides (mg/dl) Day 0 [1] | Serum triglycerides (mg/dl) Day 6 [1] | % Change Vs control (Table 5, oral) | % Change Day 6 vs Day 0 [1] | Serum triglycerides (mg/dl) Day 0 (Table 7, po once daily 6 days) | Serum triglycerides (mg/dl) Day 6 (Table 7, po once daily 6 days) | % Change Vs control (Table 7, po) | % Change Day 6 vs Day 0 (Table 7, po once daily 6 days) | other results
1 | CCO[C@@H](Cc1ccc(OCCn2c(C)ccc2-c2ccc(SC)cc2)cc1)C(=O)O.c1ccc(CCNCc2ccccc2)cc1 [Benethamine salt of Formula (I), (S) 2-Ethoxy-3-(4-{2-[2-methyl-5-(4-methylthiophenyl)-pyrrol-1-yl]-ethoxy}-phenyl)-propionic acid Benethamine salt] | 91.6 ± 6.4 mg/dL | 56.0 ± 4.9 mg/dL | −41.6 ± 5.4% | −38.3 ± 5.7% | – | – | – | – | –
2 | (S) 2-Ethoxy-3-(4-{2-[2-methyl-5-(4-methylthiophenyl)-pyrrol-1-yl]-ethoxy}-phenyl)-propionic acid Zinc Salt [Zinc Salt of Formula (I)] | – | – | – | – | – | – | – | – | Serum triglycerides (mg/dl) Day 0 [2]: 119.1 ± 7.6 mg/dL; Serum triglycerides (mg/dl) Day 6 [2]: 68.6 ± 7.5 mg/dL; % Change Vs control (Table 3, oral): −42.0 ± 4.2%; % Change Day 6 vs Day 0 [2]: −42.7 ± 4.2%
3 | CCO[C@@H](Cc1ccc(OCCn2c(C)ccc2-c2ccc(SC)cc2)cc1)C(=O)[O-].C[N+](C)(C)CCO [Choline salt of Formula (I), Choline Salt (i.e 2-Hydroxy-N,N,N-trimethylethanaminium hydroxide or choline hydroxide) of (S) 2-Ethoxy-3-(4-{2-[2-methyl-5-(4-methylthiophenyl)-pyrrol-1-ylethoxyphenylpropionic acid] | – | – | – | – | 110.9 ± 7.7 mg/dL | 47.6 ± 3.4 mg/dL | −51.0 ± 4.8% | −56.0 ± 4.3% | –
4 | CCO[C@@H](Cc1ccc(OCCn2c(C)ccc2-c2ccc(SC)cc2)cc1)C(=O)O.c1c[nH]cn1 [Imidazole salt of Formula (I), (S) 2-Ethoxy-3-(4-{2-[2-methyl-5-(4-methylthiophenyl)-pyrrol-1-yl]-ethoxy}-phenyl)-propionic acid imidazole salt] | – | – | – | – | 110.5 ± 7.2 mg/dL | 43.5 ± 2.5 mg/dL | −55.3 ± 3.6% | −59.8 ± 3.2% | –
5 | (S) 2-Ethoxy-3-(4-{2-[2-methyl-5-(4-methylthiophenyl)-pyrrol-1-yl]-ethoxy}-phenyl)-propionic acid benzylamine salt [Benzylamine salt of Formula (I)] | 91.1 ± 10.8 mg/dL | 36.5 ± 4.0 mg/dL | −60.2 ± 5.8% | −57.9 ± 6.2% | – | – | – | – | –
6 | CCO[C@@H](Cc1ccc(OCCn2c(C)ccc2-c2ccc(SC)cc2)cc1)C(=O)O.NCCO [Ethanolamine salt of Formula (I)] | – | – | – | – | 110.5 ± 7.5 mg/dL | 42.5 ± 3.6 mg/dL | −56.9 ± 3.6% | −61.3 ± 3.2% | –
7 | (S) 2-Ethoxy-3-(4-{2-[2-methyl-5-(4-methylthiophenyl)-pyrrol-1-yl]-ethoxy}-phenyl)-propionic acid L-Lysine salt [L-lysine salt of Formula (I)] | 91.2 ± 6.8 mg/dL | 48.7 ± 3.3 mg/dL | −48.7 ± 3.6% | −45.8 ± 3.8% | – | – | – | – | –
8 | CCO[C@@H](Cc1ccc(OCCn2c(C)ccc2-c2ccc(SC)cc2)cc1)C(=O)[O-].[K+] [Potassium Salt of formula (I), (S) 2-Ethoxy-3-(4-{2-[2-methyl-5-(4-methylthiophenyl)-pyrrol-1-yl]-ethoxy}-phenyl)-propionic acid potassium salt] | – | – | – | – | – | – | – | – | Serum triglycerides (mg/dl) Day 0 [2]: 119.0 ± 9.2 mg/dL; Serum triglycerides (mg/dl) Day 6 [2]: 44.8 ± 4.6 mg/dL; % Change Vs control (Table 3, oral): −60.2 ± 6.0%; % Change Day 6 vs Day 0 [2]: −60.7 ± 6.0%
9 | (S) 2-Ethoxy-3-(4-{2-[2-methyl-5-(4-methylthiophenyl)-pyrrol-1-yl]-ethoxy}-phenyl)-propionic acid piperazine salt [Piperazine salt of Formula (I)] | 91.0 ± 6.5 mg/dL | 44.1 ± 1.9 mg/dL | −52.8 ± 3.7% | −50.2 ± 4.0% | – | – | – | – | –
10 | (S) 2-Ethoxy-3-(4-{2-[2-methyl-5-(4-methylthiophenyl)-pyrrol-1-yl]-ethoxy}-phenyl)-propionic acid Meglumine salt [Maglumine salt of Formula (I)] | – | – | – | – | 110.6 ± 9.1 mg/dL | 32.4 ± 1.5 mg/dL | −66.5 ± 2.5% | −70.0 ± 2.2% | –
11 | CCO[C@@H](Cc1ccc(OCCn2c(C)ccc2-c2ccc(SC)cc2)cc1)C(=O)[O-].[Na+] [Sodium Salt of Formula (I), (S) 2-Ethoxy-3-(4-{2-[2-methyl-5-(4-methylthiophenyl)-pyrrol-1-yl]-ethoxy}-phenyl)-propionic acid sodium salt] | – | – | – | – | – | – | – | – | Serum triglycerides (mg/dl) Day 0 [2]: 119.4 ± 11.9 mg/dL; Serum triglycerides (mg/dl) Day 6 [2]: 41.6 ± 1.8 mg/dL; % Change Vs control (Table 3, oral): −63.1 ± 3.6%; % Change Day 6 vs Day 0 [2]: −63.5 ± 3.6%
12 | (S) 2-Ethoxy-3-(4-{2-[2-methyl-5-(4-methylthiophenyl)-pyrrol-1-yl]-ethoxy}-phenyl)-propionic acid L-arginine salt [L-arginine salt of Formula (I)] | 91.6 ± 7.9 mg/dL | 37.2 ± 2.1 mg/dL | −60.2 ± 3.9% | −58.0 ± 4.2% | – | – | – | – | –
13 | CCO[C@@H](Cc1ccc(OCCn2c(C)ccc2-c2ccc(SC)cc2)cc1)C(=O)O.OCCN1CCCC1 [Epolamine salt of Formula (I)] | – | – | – | – | 110.5 ± 7.5 mg/dL | 39.6 ± 3.8 mg/dL | −60.1 ± 2.6% | −64.2 ± 2.3% | –
14 | CCO[C@@H](Cc1ccc(OCCn2c(C)ccc2-c2ccc(SC)cc2)cc1)C(=O)O.OCCN(CCO)CCO [Triethanolamine salt of Formula (I)] | – | – | – | – | 110.3 ± 7.5 mg/dL | 33.0 ± 2.6 mg/dL | −65.3 ± 4.4% | −68.9 ± 3.9% | –
15 | (S) 2-Ethoxy-3-(4-{2-[2-methyl-5-(4-methylthiophenyl)-pyrrol-1-yl]-ethoxy}-phenyl)-propionic acid Tromethamine salt [Tromethamine salt of Formula (I)] | 91.2 ± 7.8 mg/dL | 47.9 ± 4.9 mg/dL | −46.9 ± 8.5% | −43.9 ± 9.0% | – | – | – | – | –
16 | (S) 2-Ethoxy-3-(4-{2-[2-methyl-5-(4-methylthiophenyl)-pyrrol-1-yl]-ethoxy}-phenyl)-propionic acid Calcium Salt [Calcium Salt of Formula (I)] | – | – | – | – | – | – | – | – | Serum triglycerides (mg/dl) Day 0 [2]: 119.2 ± 11.1 mg/dL; Serum triglycerides (mg/dl) Day 6 [2]: 38.8 ± 3.2 mg/dL; % Change Vs control (Table 3, oral): −66.4 ± 2.5%; % Change Day 6 vs Day 0 [2]: −66.8 ± 2.5%
